Measurements as given in patent US20190284136A1, “INDOLINE DERIVATIVES” (ViiV HEALTHCARE UK LIMITED, priority 2016, published 2019).

Test system: HIV
Assay: Table 1 IC50 of the examples (assay method not given; patent concerns inhibiting HIV replication)
Type: cell-based
Settings: Human immunodeficiency virus 1

Q: How did the IC50 turn out when `Cc1ccc(-c2c3c(cc(C)c2C(OC(C)(C)C)C(=O)O)N(C(=O)c2cccc(F)c2)CCC3)cc1` (stereo not shown) [Example 214, 2-(tert-Butoxy)-2-(1-(3-fluorobenzoyl)-7-methyl-5-(p-tolyl)-1,2,3,4-tetrahydroquinolin-6-yl)acetic acid] was run?
A: The IC50 was 3.56 µM.
